From patent publication US11077090B2, “Compounds and compositions and uses thereof” (Sunovion Pharmaceuticals Inc., priority 2016, dated 2021)
Where two headings read alike, the source gives them in different places.

Test system: compound-treated mice
Assay: Neuropharmacological assay (SmartCube): behavioral activity signature and minimal effective dose
Assay type: in vivo
Conditions: for minimal effective dose: Mus musculus, ip, MED = dose having 50% or more total activity; for AD: ADHD (probability of activity signature) / AG: analgesic (probability of activity signature) / AX: anxiolytic (probability of activity signature) / CE: cognitive enhancer (probability of activity signature) / DP: anti-depressant (probability of activity signature) / MS: mood stabilizer (probability of activity signature) / PS: anti-psychotic (probability of activity signature) / SD: sedative hypnotic (probability of activity signature) / UN: uncharacterized CNS activity (probability of activity signature): i.p. 15 min before test, most efficacious dose(s)
Outline: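 Mice dosed i.p. 15 min before test, compound in N-methyl-2-pyrrolidone/PEG/propylene glycol, 3 doses; video-captured behavior matched to reference-drug signatures, giving per-class probabilities at most efficacious dose. MED from doses typically 0.3–30 mpk, defined as lowest dose with ≥50% total activity.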

[1] = read-out: Potency: minimal effective dose (MED)
[2] = read-out: Potency: minimal effective dose (MED), binned

| Compound | minimal effective dose [1] [mg/kg] | AD: ADHD (probability of activity signature) | AG: analgesic (probability of activity signature) | AX: anxiolytic (probability of activity signature) | CE: cognitive enhancer (probability of activity signature) | DP: anti-depressant (probability of activity signature) | MS: mood stabilizer (probability of activity signature) | PS: anti-psychotic (probability of activity signature) | SD: sedative hypnotic (probability of activity signature) | UN: uncharacterized CNS activity (probability of activity signature) | minimal effective dose [2] [mg/kg] |
| --- | --- | --- | --- | --- | --- | --- | --- | --- | --- | --- | --- |
| C[C@H]1OCc2ccc(Cl)c(Cl)c2[C@@H]1N.Cl [Example 92] | 10 to 30 | + (LOQ ≤ + <5%) | + (LOQ ≤ + <5%) | ++ (5% ≤ ++ <25%) | + (LOQ ≤ + <5%) | ++ (5% ≤ ++ <25%) | + (LOQ ≤ + <5%) | + (LOQ ≤ + <5%) | + (LOQ ≤ + <5%) | ++++ (50% ≤ ++++) | – |
| CC[C@H]1OCc2cccc(C)c2[C@@H]1N.Cl [Example 207] | – | + (LOQ ≤ + <5%) | ++ (5% ≤ ++ <25%) | ++ (5% ≤ ++ <25%) | ++ (5% ≤ ++ <25%) | ++ (5% ≤ ++ <25%) | + (LOQ ≤ + <5%) | ++ (5% ≤ ++ <25%) | + (LOQ ≤ + <5%) | ++++ (50% ≤ ++++) | 3 to 10 |
| Cc1ccc2c(c1)[C@H](N)[C@H](C)OC2.Cl (relative stereo) [Example 76, cis-3,6-Dimethylisochroman-4-amine hydrochloride] | < 3 | + (LOQ ≤ + <5%) | ++ (5% ≤ ++ <25%) | ++ (5% ≤ ++ <25%) | ++ (5% ≤ ++ <25%) | ++ (5% ≤ ++ <25%) | + (LOQ ≤ + <5%) | ++ (5% ≤ ++ <25%) | + (LOQ ≤ + <5%) | +++ (25% ≤ +++ <50%) | – |
| C[C@H]1OCc2ccc(C(F)(F)F)cc2[C@@H]1N.Cl [Example 229] | – | + (LOQ ≤ + <5%) | + (LOQ ≤ + <5%) | ++ (5% ≤ ++ <25%) | ++ (5% ≤ ++ <25%) | ++ (5% ≤ ++ <25%) | + (LOQ ≤ + <5%) | ++ (5% ≤ ++ <25%) | + (LOQ ≤ + <5%) | +++ (25% ≤ +++ <50%) | 3 to 10 |
| CC[C@@H]1OCc2cccc(Cl)c2[C@@H]1N (single isomer, unassigned) [Example 218] | – | + (LOQ ≤ + <5%) | + (LOQ ≤ + <5%) | ++ (5% ≤ ++ <25%) | ++ (5% ≤ ++ <25%) | + (LOQ ≤ + <5%) | + (LOQ ≤ + <5%) | ++ (5% ≤ ++ <25%) | + (LOQ ≤ + <5%) | ++++ (50% ≤ ++++) | < 3 |
| Cl.NC1CCOCc2cc(Cl)ccc21 (stereo not drawn) [Example 38] | 10 to 30 | + (LOQ ≤ + <5%) | ++ (5% ≤ ++ <25%) | ++ (5% ≤ ++ <25%) | + (LOQ ≤ + <5%) | ++ (5% ≤ ++ <25%) | + (LOQ ≤ + <5%) | ++ (5% ≤ ++ <25%) | + (LOQ ≤ + <5%) | +++ (25% ≤ +++ <50%) | – |
